Measured values: ChEMBL document CHEMBL3507680, “University of Dundee, Gates Library screen for HepG2 cell viability”

assay: Human HepG2 cell viability assay in 384 well format; type: toxicity, cell-based; design: dose 125 nL, time 70.5 hour; concentration not given beside the values; conditions: HepG2 cells, read-out: Inhibition

Going from `O=C1COC2(CCN(Cc3cccnc3)CC2)CN1` to `Cc1nccn1Cc1nnc(C2CCCN(Cc3cccnc3)C2)n1C` (stereo not given), the cytotoxicity at 70.5 h falls from 12.3% to 5.17%.

First: Cc1nccn1C1CCCN(C(=O)CCCNc2ncccn2)C1 (stereo not given)
Second: Cc1ccc(CN2CCC[C@]3(C(=O)O)CN(c4ncccn4)C[C@@H]3C2)o1
The cytotoxicity at 70.5 h of the first is lower: -6.43% for the first, 0.612% for the second.

First: O=C(O)C(c1ccc2c(c1)OCCO2)N1CCC(N2CCSCC2)CC1 (stereo not given)
Second: COc1ccccc1C(C(=O)O)N1CCCN(C2CCCC2)CC1 (stereo not given)
The cytotoxicity at 70.5 h of the first is lower: -1.86% for the first, 16.1% for the second.

Going from `COC(=O)CNC(=O)C1(NC(=O)c2ccc3[nH]ncc3c2)CCCC1` to `O=C(NCC(=O)N1CCCc2ccccc21)c1c(O)cc(F)cc1F`, the cytotoxicity at 70.5 h falls from 0.707% to 0.334%.

Compared with `O=C(C1CCOCC1)N1CCC2(CCNCC2)C1`, `CSc1cccc(NC(=O)N2CCC3(CCC(=O)N(C4CC4)C3)CC2)c1` is higher in cytotoxicity at 70.5 h: -11.8% for the first, -9.9% for the second.

Going from `CSc1cccc(CNC(=O)[C@H]2CNC[C@@H](C(=O)N3CCOCC3)C2)c1` to `N[C@@H]1CCN(Cc2cccc(N3CCOCC3)c2)C[C@H]1O`, the cytotoxicity at 70.5 h rises from -4.8% to 26.8%.

Compared with `O=C(NCc1ccon1)N1CCC(n2ccc(C(F)(F)F)n2)CC1`, `O=S(=O)(Cc1ccon1)N1CCN(c2ccncc2Cl)CC1` is higher in cytotoxicity at 70.5 h: -94.1% for the first, -11.7% for the second.

Compared with `O=C(CC(F)(F)F)N1CCc2[nH]nc(-c3ccc4c(c3)OCO4)c2C1`, `CC(C)c1nc(C2CCCN(C(=O)c3ccc4c(c3)COC4)C2)no1` (stereo not given) is lower in cytotoxicity at 70.5 h: 7.4% for the first, 0.421% for the second.

First: Cc1ccc(CN2CC[C@@H]3[C@@H](CO[C@H]3CN3CCN(C)CC3)C2)s1
Second: Cn1cc(CN2CCO[C@@H]3CN(C4CCCC4)C[C@@H]3C2)cn1
The cytotoxicity at 70.5 h of the first is higher: 14.3% for the first, 1.26% for the second.

Going from `CCC1CCN(CCn2cnc3c(C)csc3c2=O)CC1` to `CCOCC(=O)NCC1CCN(Cc2ccsc2)CC1`, the cytotoxicity at 70.5 h rises from -6.08% to 1.54%.

First: CCc1nnc2n1CCN(C(=O)C(C)COCc1ccccc1)C2 (stereo not given)
Second: CCO[C@@H]1CC[C@H]2[C@H]1OCCN2CCOCc1ccccc1
The cytotoxicity at 70.5 h of the first is higher: -9.75% for the first, -17.9% for the second.

Going from `CNC(=O)CS(=O)(=O)Cc1ccc(OC)c(F)c1` to `CC(C)S(=O)(=O)Cc1cccc(NC(=O)c2ccc[nH]2)c1`, the cytotoxicity at 70.5 h rises from -11.9% to -11%.

Compared with `COc1ncnc(N)c1CNCc1ccccc1-n1cccn1`, `COc1ccccc1N1CCC(CNCc2c(C)nn(C)c2OC)C1` (stereo not given) is lower in cytotoxicity at 70.5 h: 6.74% for the first, 0.53% for the second.

Compared with `COc1ccc(-n2ccc(C(=O)N(C)C(C)C3(C)CC3)n2)cc1` (stereo not given), `COc1ccc(C(C)N(C)Cc2c(C(C)C)[nH]c3ncccc23)cc1` (stereo not given) is lower in cytotoxicity at 70.5 h: 21.1% for the first, 20.8% for the second.

Going from `c1ccc(OCc2nnn3c2CN(c2ncccn2)CCC3)nc1` to `CN1CCN(C(=O)Cc2ccsc2)Cc2cccnc21`, the cytotoxicity at 70.5 h falls from 6.14% to -1.77%.

Compared with `CCn1c(Cn2cncn2)nnc1C1CCN(CCN)CC1`, `Cn1c(C2CC2)nc2c1CCN(Cc1nc(-c3ccsc3)no1)C2` is lower in cytotoxicity at 70.5 h: 17.7% for the first, -10.5% for the second.

First: COc1cccc(COCC(=O)N2CCC(CC(N)=O)CC2)c1
Second: NC(=O)C1CCN(Cc2cccc(NC(=O)c3ccsc3)c2)CC1
The cytotoxicity at 70.5 h of the first is higher: 4.02% for the first, 0.035% for the second.

First: O=C(CSc1ccccn1)N1C[C@H]2CC[C@@H]1CN(Cc1cscn1)C2
Second: CCOCC(=O)N1C[C@@H](O)[C@H](N2CCN(c3ccccc3)CC2)C1
The cytotoxicity at 70.5 h of the first is lower: -8.62% for the first, -3.95% for the second.

Compared with `O=S(=O)(NCC(O)c1ccc2c(c1)CCO2)c1ccccc1F` (stereo not given), `O=C(Cc1cccc(F)c1F)NS(=O)(=O)c1ccc(Cl)cn1` is higher in cytotoxicity at 70.5 h: -13.3% for the first, -6.06% for the second.

First: CN(C(=O)CCN1CCCC1=O)c1cc(C#N)c2ccccc2n1
Second: CC1(c2ccccc2)CCC(=O)N(CCN2CCOC2=O)C1 (stereo not given)
The cytotoxicity at 70.5 h of the first is higher: 4.42% for the first, -2.39% for the second.

First: CNc1ncc(C(=O)N2CCC3(CC2)Nc2ccccc2NC3=O)cn1
Second: Cc1ccc(C(=O)N2C[C@@H]3COC[C@]3(COCc3cccnc3)C2)cn1
The cytotoxicity at 70.5 h of the first is higher: -0.695% for the first, -6.21% for the second.

First: CCc1noc(-c2cccc(OCC(=O)NC(C)C)c2)n1
Second: CCc1noc(CNCC2CCCN2c2cccnn2)n1 (stereo not given)
The cytotoxicity at 70.5 h of the first is lower: -7.23% for the first, 1.91% for the second.

Going from `Cc1cc(-c2ccccc2C(=O)O)nc(C2CCCCN2C)n1` (stereo not given) to `Cc1cc2nc(C3CCCCC3)c(-c3ccnc(NCCO)n3)cn2n1`, the cytotoxicity at 70.5 h rises from -6.42% to -5.35%.

Compared with `Cc1ccc(C(=O)Nc2cc(F)ccc2OCC2CCCO2)cn1` (stereo not given), `COc1ncccc1C(=O)NC1CCOc2ccccc21` (stereo not given) is lower in cytotoxicity at 70.5 h: -3.09% for the first, -6.62% for the second.

First: O[C@@H]1C[C@@H](c2nc(Cc3ccccc3)no2)N(Cc2ccc(F)cc2)C1
Second: Fc1ccc(C2(NCc3noc(C4CC4)n3)CCC2)cc1
The cytotoxicity at 70.5 h of the first is lower: -19.1% for the first, 8.34% for the second.

First: Cc1oncc1C(=O)NCc1cc(=O)n2c(n1)CN(CC1CC1)CCC2
Second: CCn1nc(C)c(CNC(=O)c2cn(CC3CCCO3)nn2)c1C (stereo not given)
The cytotoxicity at 70.5 h of the first is higher: 17.8% for the first, -1.67% for the second.

First: Cc1ccc(C2CN(CCCC#N)CCO2)c(C)c1 (stereo not given)
Second: Cc1cc(C)n(CC2CN(Cc3nc(-c4ccoc4)no3)CCO2)n1 (stereo not given)
The cytotoxicity at 70.5 h of the first is higher: -2.64% for the first, -15.7% for the second.

Compared with `N#Cc1cn(C2CC2)c(=O)n(CC(O)c2ccccc2C(F)(F)F)c1=O` (stereo not given), `CN(C)CCn1c(=O)n(C)c(=O)c2ccccc21` is higher in cytotoxicity at 70.5 h: -15.2% for the first, 18.7% for the second.

First: C[C@@H](N)C(=O)N1CC2(CCNCC2)c2cc(Cl)ccc21
Second: CC(C)CN1CCC2(COCc3cnc(-c4ccccc4)nc32)C1 (stereo not given)
The cytotoxicity at 70.5 h of the first is higher: 0.763% for the first, -3.09% for the second.

Going from `CNC(=O)Cc1ccccc1NC(=O)NCc1ccc(SC)cc1` to `Cc1ccsc1C(=O)NC1CCS(=O)(=O)c2ccccc21` (stereo not given), the cytotoxicity at 70.5 h falls from 19.8% to -5.17%.

First: CO[C@H]1CNC[C@@H]1NC(=O)c1cc(C)nc2c(C)c(C)ccc12
Second: COc1c(CNCCNC(=O)c2ccc(C)cc2)c(C)nn1C
The cytotoxicity at 70.5 h of the first is lower: 5.29% for the first, 8.52% for the second.

First: CCOCCS(=O)(=O)c1nnc(NCCOC)s1
Second: COC(=O)N1CCC(CNS(=O)(=O)c2cnn(C)c2)CC1
The cytotoxicity at 70.5 h of the first is higher: 23.1% for the first, -0.269% for the second.

First: CN(CC(N)=O)Cc1cc(Cl)cc2cccnc12
Second: CC(c1cccnc1)N(C)Cc1cc2cc3c(cc2[nH]c1=O)OCO3 (stereo not given)
The cytotoxicity at 70.5 h of the first is lower: -8.6% for the first, 2.59% for the second.

First: CC(=O)N1CCC(c2nnc3ccc(C(=O)NCCN(C)C)cn23)C1 (stereo not given)
Second: CO[C@@]1(C)C[C@@H](O)C12CCN(C(=O)CCn1c(C)cccc1=O)CC2
The cytotoxicity at 70.5 h of the first is lower: -10.5% for the first, -4.42% for the second.

Going from `COc1ccc(CNCc2ccnc(N3CCCC3)c2)c(OC)c1` to `COc1ccc(OC)c(C2CCN(CC(C)(C)N3CCOCC3)C2)c1` (stereo not given), the cytotoxicity at 70.5 h falls from -1.69% to -4.45%.

First: O=C(c1cc(F)cc(F)c1)N1C[C@H]2CNC[C@H]2C1
Second: O=C(c1ccc(C2CCCO2)s1)N1CCOCC1 (stereo not given)
The cytotoxicity at 70.5 h of the first is lower: -13.4% for the first, -5.89% for the second.

First: O=C(Nc1cccnc1)[C@H]1C[C@@H]2CCN(c3nncs3)C[C@H]2O1
Second: Cc1n[nH]c(C)c1NC(=O)CN1CCN(c2nccs2)C(C)C1 (stereo not given)
The cytotoxicity at 70.5 h of the first is lower: -1.35% for the first, -1.01% for the second.

First: CCC(OC)C(=O)N1CCc2nc(NC)nc(C(=O)N3CCCC3)c2C1 (stereo not given)
Second: CC(C)c1nc(CN2CCN(C(=O)CN3CCOCC3)CC2)no1
The cytotoxicity at 70.5 h of the first is lower: -5.78% for the first, 28.7% for the second.

First: O=C1CCC(=O)N1c1nn(Cc2ccccc2Cl)cc1Cl
Second: CN(Cc1nnc(-c2cccs2)o1)C(C(N)=O)c1cccc(F)c1 (stereo not given)
The cytotoxicity at 70.5 h of the first is higher: -0.484% for the first, -22% for the second.

First: CSCC[C@H]1CN2CCC[C@H]2CN1Cc1cn(C)nc1C
Second: Cc1ccoc1CNCc1nnc2n1CCCC2C(F)(F)F (stereo not given)
The cytotoxicity at 70.5 h of the first is higher: -3.69% for the first, -3.7% for the second.
